# Test results taken from patent US10322123B2, “Compound for anti-cancer therapy that acts by targeting GOF mutant P53 and stimulates P73 to restore the P53 pathway signaling” (The Penn State Research Foundation, priority 2014, dated 2019).
# Legend:
# p21, Puma and Noxa mRNA = experiment: qRT-PCR of p53 target gene mRNA; type: cell-based, human
# Excerpt: (§1) Total RNA was isolated from cells using RNeasy mini kit (Qiagen, USA) by the recommended protocol. Reverse transcription used SuperScript II first-strand synthesis system (Invitrogen, USA) with random primers. qRT-PCR reactions used SYBR green master mix with the Real-Time PCR Detection systems (Bio-Rad, USA). Primers for qRT-PCR are (forward) 5′-[…]-3′ (SEQ ID NO: 1) and (reverse) 5′-[…]-3′ (SEQ ID NO: 2) for p53, (forward) 5′-TGTCCGTCAGAACCCATG-3′ (SEQ ID NO: 3) and (reverse) 5′-[…]-3′ (SEQ ID NO: 4) for p21, (forward) 5′-[…]-3′ (SEQ ID NO: 5) and (reverse) 5′-[…]-3′ (SEQ ID NO: 6) for Puma, (forward) 5′-[…]-3′ (SEQ ID NO: 7) and (reverse) 5′-[…]-3′ (SEQ ID NO: 8) for Noxa, (forward) 5′-CTGGGCTACACTGAGCACC-3′ (SEQ ID NO: 9) and (reverse) 5′-[…]-3′ (SEQ ID NO: 10) for Gapdh. Target gene expression levels were normalized with Gapdh.
# DLD-1 xenograft tumors = experiment: In vivo anti-tumor assay, xenograft; design: species or system mice; settings: 45 mg/kg i.p. every 5 days
# Method: (§2) CRL nude mice (female, 4-6 weeks old) were inoculated s.c. in the opposite flanks with 5 million DLD-1 or p73 knock-down DLD-1 cells in an equal volume of martrigel. Treatment with NSC59984 (i.p. injection) was initiated when the tumor masses reached a size of 3-5 mm. NSC59984 (45 mg/kg) was injected by i.p. route every 5 days. Fifteen days after treatment, the mice were euthanized using an institutional animal care and use committee-approved animal protocol.
# [1] = test system: p73 knock-down DLD-1 xenograft tumors; experiment: In vivo anti-tumor assay, xenograft; design: species or system mice; settings: 45 mg/kg i.p. every 5 days
# Method: as §2
# mutant p53 mRNA = experiment: Mutant p53 mRNA qRT-PCR; type: cell-based, human; settings: SW480 cells, 3 hr or 16 hr, compared to DMSO control
# Excerpt: as §1
# [2] = test system: MRC-5 normal fibroblast cells; experiment: CellTiter-Glo cell viability, combination with CPT-11; type: cell-based, human; settings: for Combination index (CI): MRC, 72 hr
# Method: (§3) Cells at a concentration of 5000 cells/well in 96-well plates were treated with NSC59984 or other drugs. At seventy-two hours after treatment, cells were mixed with an equal volume of CellTiter-Glo reagents (Promega, Madison, Wis.), following the manufacturer's protocol, and bioluminescence imaging was measured using the IVIS imager.
# (§4) All results were obtained from triplicate experiments, unless other indicated. Statistical analyses were performed using PRISM4 Software (GraphPad Software, Inc., San Diego, Calif., USA), ANOVA and Student's t-test. Statistical significances were determined by p<0.05. Combination indices were calculated using the Chou-Talalay method with CalcuSyn software (biosoft).
# [3] = test system: Wi38 normal fibroblast cells; experiment: as above; type: cell-based, human; settings: for Combination index (CI): Wi38, 72 hr
# Method: as §3, §4
# SW480 cancer cells = experiment: as above; type: cell-based, human; settings: for Combination index (CI): SW480, 72 hr
# Method: as §3, §4
# [4] = CPT-11 15 mg/ml, NSC59984 12 mM
# [5] = CPT-11 15 mg/ml, NSC59984 25 mM
# [6] = CPT-11 30 mg/ml, NSC59984 12 mM
# [7] = CPT-11 30 mg/ml, NSC59984 25 mM
# [8] = CPT-11 60 mg/ml, NSC59984 12 mM
# [9] = CPT-11 60 mg/ml, NSC59984 25 mM
# [10] = CPT-11 120 mg/ml, NSC59984 6 mM
# [11] = CPT-11 120 mg/ml, NSC59984 12 mM
# [12] = CPT-11 120 mg/ml, NSC59984 25 mM
# [13] = CPT-11 15 mg/ml, NSC59984 50 mM
# [14] = CPT-11 30 mg/ml, NSC59984 50 mM
# [15] = CPT-11 60 mg/ml, NSC59984 50 mM
# [16] = CPT-11 120 mg/ml, NSC59984 50 mM
smiles,measurement,setting,value
"CN1CCN(C(=O)/C=C/c2ccc([N+](=O)[O-])o2)CC1 [NSC59984, (E)-1-(4-methylpiperazin-1-yl)-3-(5-nitrofuran-2-yl)prop-2-en-1-one]",Noxa mRNA,"p21, Puma and Noxa mRNA; 25 μM in HCT116 and 12 μM in p53-null HCT116 cells",slightly increased
same,Puma and p21 mRNA level,"p21, Puma and Noxa mRNA; HCT116 and p53-null HCT116 cells",not up-regulated
same,"mRNA levels of p21, Noxa and Puma","p21, Puma and Noxa mRNA; SW480 and DLD-1 cells, 3 hours, dose-dependent",significantly increased
same,xenograft tumor growth,DLD-1 xenograft tumors; compared to DMSO control,significantly repressed
same,tumor weight reduced by,DLD-1 xenograft tumors; day 15,34%
same,tumor growth suppression,[1],not observed
same,tumor weight reduced by,[1]; day 15,18%
same,p53 mRNA,mutant p53 mRNA,not decreased
same,Combination index (CI),"[2]; CPT-11 15 mg/ml, NSC59984 50 μM",0.00 ± 0.00
same,Combination index (CI),"[2]; CPT-11 15 mg/ml, NSC59984 6 mM",1.06 ± 0.43
same,Combination index (CI),[2]; [4],0.91 ± 0.21
same,Combination index (CI),[2]; [5],0.54 ± 0.03
same,Combination index (CI),"[2]; CPT-11 30 mg/ml, NSC59984 50 μM",0.00 ± 0.00
same,Combination index (CI),"[2]; CPT-11 30 mg/ml, NSC59984 6 mM",0.75 ± 0.09
same,Combination index (CI),[2]; [6],0.40 ± 0.07
same,Combination index (CI),[2]; [7],0.12 ± 0.07
same,Combination index (CI),"[2]; CPT-11 60 mg/ml, NSC59984 50 μM",0.00 ± 0.00
same,Combination index (CI),"[2]; CPT-11 60 mg/ml, NSC59984 6 mM",0.49 ± 0.09
same,Combination index (CI),[2]; [8],0.08 ± 0.04
same,Combination index (CI),[2]; [9],0.00 ± 0.00
same,Combination index (CI),"[2]; CPT-11 120 mg/ml, NSC59984 50 μM",0.02 ± 0.00
same,Combination index (CI),[2]; [10],0.06 ± 0.02
same,Combination index (CI),[2]; [11],0.00 ± 0.00
same,Combination index (CI),[2]; [12],0.00 ± 0.00
same,combinational treatment with CPT11,[2]; normal fibroblast MRC5 cells,synergic activity
same,Combination index (CI),"[3]; CPT-11 15 mg/ml, NSC59984 6 mM",1.50 ± 0.18
same,Combination index (CI),[3]; [4],1.45 ± 0.12
same,Combination index (CI),[3]; [5],0.88 ± 0.11
same,Combination index (CI),[3]; [13],0.03 ± 0.01
same,Combination index (CI),"[3]; CPT-11 30 mg/ml, NSC59984 6 mM",1.10 ± 0.14
same,Combination index (CI),[3]; [6],0.95 ± 0.05
same,Combination index (CI),[3]; [7],0.20 ± 0.04
same,Combination index (CI),[3]; [14],0.03 ± 0.00
same,Combination index (CI),"[3]; CPT-11 60 mg/ml, NSC59984 6 mM",0.58 ± 0.10
same,Combination index (CI),[3]; [8],0.44 ± 0.06
same,Combination index (CI),[3]; [9],0.01 ± 0.00
same,Combination index (CI),[3]; [15],0.05 ± 0.00
same,Combination index (CI),[3]; [10],0.96 ± 0.22
same,Combination index (CI),[3]; [11],0.29 ± 0.04
same,Combination index (CI),[3]; [12],0.01 ± 0.00
same,Combination index (CI),[3]; [16],0.11 ± 0.02
same,combinational treatment with CPT11,[3]; normal fibroblast Wi38 cells,synergic activity
same,Combination index (CI),"SW480 cancer cells; CPT-11 15 mg/ml, NSC59984 6 mM",3.01 ± 0.20
same,Combination index (CI),SW480 cancer cells; [4],2.02 ± 0.27
same,Combination index (CI),SW480 cancer cells; [5],0.66 ± 0.04
same,Combination index (CI),SW480 cancer cells; [13],1.00 ± 0.02
same,Combination index (CI),"SW480 cancer cells; CPT-11 30 mg/ml, NSC59984 6 mM",1.80 ± 0.15
same,Combination index (CI),SW480 cancer cells; [6],0.38 ± 0.04
same,Combination index (CI),SW480 cancer cells; [7],0.65 ± 0.02
same,Combination index (CI),SW480 cancer cells; [14],0.40 ± 0.04
same,Combination index (CI),"SW480 cancer cells; CPT-11 60 mg/ml, NSC59984 6 mM",0.64 ± 0.17
same,Combination index (CI),SW480 cancer cells; [8],0.22 ± 0.03
same,Combination index (CI),SW480 cancer cells; [9],0.57 ± 0.00
same,Combination index (CI),SW480 cancer cells; [15],0.41 ± 0.04
same,Combination index (CI),SW480 cancer cells; [10],0.18 ± 0.01
same,Combination index (CI),SW480 cancer cells; [11],0.36 ± 0.08
same,Combination index (CI),SW480 cancer cells; [12],0.62 ± 0.05
same,Combination index (CI),SW480 cancer cells; [16],0.23 ± 0.04
same,"cell viability, combinational treatment with CPT11","SW480 cancer cells; SW480 cancer cells as compared to MRC5 and Wi38 normal cells, 72 hr",significantly reduced
same,combinational treatment with CPT11,SW480 cancer cells; SW480 colon cancer cells,synergic activity
